Columns and labels:
[1] = system: Norway spruce embryos, cell-lines 95:61:21 (61:21), 19:01 and 28:05; experiment: Germination (root length) on germination medium after inositol treatment, without partial drying (Example 5); assay type: cell-based
Procedure: Then 15, embryos from each concentration of inositol were transferred to germination medium (same as the prematuration medium). The progress of germination was measured by root length after 11, days on germination medium. Germination was fastest for the embryos that had been treated with 0.25, M inositol FIG. 6a. The difference between the root lengths after treatment at the three highest concentrations compared with those at the three lowest concentrations was highly significant by t-test (P<0.001). The experiment was repeated with another replicate of cell-line 61:21. This time, the inositol treatment was for 25, days, the small clumps of embryos were transferred to prematuration medium for 9, days, then 10, embryos were individually planted on prematuration medium and root length was measured 29, days later. […] The length of inositol treatment was 16, days for both lines. Root length was measured 12, or 14, days according to cell-line after transfer of 20, embryos for each concentration of inositol to prematuration medium for germination. For all four experiments of Example 5, root length after treatments of 0.2, to 0.3 M inositol was compared to root length after treatments with 0, to 0.1, M inositol in a paired t-test. […] The inventors have compared on a small scale the germination of inositol-treated embryos with partially dried embryos that have been matured by standard procedures.

[2] = system: embryogenic callus of Norway spruce, cell-lines 61:21, 19:01 and 28:05; experiment: Inositol concentration series on maturation medium, embryo quality measurements (Example 4); assay type: cell-based; conditions: for root development, indicating premature germination: FIG. 2a-c
Excerpt: To investigate how various inositol concentrations synchronize embryo development and affect the quality of the developing embryos, three cell-lines of embryogenic callus of Norway spruce, cell-lines 61:21, 19:01, and 28:05, were exposed to 1, week on prematuration medium, and matured for 40, days, 36, days or 33, days, respectively on maturation medium with subculturing every two weeks. Small clumps about 1, cm diameter of maturing embryos were then subcultured on maturation medium containing 0.0005, M (here denoted 0, M), 0.06, M, 0.1, M, 0.2, M, 0.25, M or […] inositol.
Twenty individual mature embryos or small plantlets were picked randomly from the plates and the following measurements were taken, for quality measurement, see FIG. 1: width of hypocotyls (1), width across the cotyledons one third of the way down of the hypocotyls (2), width across the cotyledons two third of the way down of the hypocotyls (3) and length of the hypocotyls (4), length of root (5).

## O[C@H]1[C@H](O)[C@@H](O)[C@H](O)[C@@H](O)[C@H]1O [inositol, cis-1,2,3,5-trans-4,6-cyclohexanehexol]
[1]; all four experiments of Example 5, paired t-test, P<0.03
  root length after 0.2 to 0.3 M inositol compared with 0 to 0.1 M inositol: significantly greater
[1]; cell-line 95:61:21, 0.25 M inositol for 17 days, 15 embryos, FIG. 6a
  germination, measured by root length after 11 days on germination medium: fastest
[1]; cell-lines 19:01 and 28:05, 16 days inositol, root length at 12 or 14 days, FIGS. 6c, 6d
  subsequent root growth on germination medium: advantages of treatment with high concentrations of inositol for subsequent root growth
[1]; replicate of cell-line 61:21, 0.25 M inositol for 25 days, 10 embryos, FIG. 6b
  rooting, root length measured 29 days after planting on prematuration medium: rooting fastest
[1]; small scale comparison
  germination compared with partially dried embryos matured by standard procedures: shoots grow faster and more vigorously
[2]; 0.2-0.3 M inositol
  effect on embryo development (summary): synchronized development of the embryos by inhibiting germination but not embryo development
  root development, indicating premature germination: inhibited almost completely
[2]; 0.2-0.3 M inositol, FIG. 5a-c
  ratio of width one third down the hypocotyl (2) to width two thirds down the hypocotyl (3): just above unity
[2]; cell-line 28:05, 0.25 M inositol, FIG. 4
  coefficient of variation of width across the cotyledons (minimum): 35%
[2]; cell-line 61:21, FIG. 3
  inositol concentration at which the coefficient of variation of hypocotyl length is at a minimum (synchrony maximal): 0.25 M
[2]; low concentrations of inositol
  root development, indicating premature germination: present
[2]; the other two cell-lines (19:01, 28:05), higher concentrations of inositol
  variation in hypocotyl length: reduced markedly

Reference: US9125352B2, “Method for maturing and synchronizing conifer somatic embryos” (SweTree Technologies AB, priority 2010, dated 2015)
